Usually IC50 stands for the midpoint of a concentration-inhibition curve.

For the first experiment, the target named is His-tagged recombinant human Gal-3 (hGal-3) (Homo sapiens (Human), UniProt P17931). Put plainly: Gal-3 HTRF assay (His-tagged hGal-3 binding to B-ASF).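 Note: compounds preincubated 30 min with hGal-3, then 1 h with B-ASF, detection via terbium anti-His antibody and streptavidin d2. Control with B-ASF counts as full signal, omitting B-ASF as background.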 The following applies: HTRF, hGal-3 15 nM, B-ASF 15 nM; read-out: hGal-3 IC50. For orientation: Time-resolved FRET reads energy transfer from a long-lived donor to a nearby acceptor.
Chain of His-tagged recombinant human Gal-3 (hGal-3) (P17931 whole entry): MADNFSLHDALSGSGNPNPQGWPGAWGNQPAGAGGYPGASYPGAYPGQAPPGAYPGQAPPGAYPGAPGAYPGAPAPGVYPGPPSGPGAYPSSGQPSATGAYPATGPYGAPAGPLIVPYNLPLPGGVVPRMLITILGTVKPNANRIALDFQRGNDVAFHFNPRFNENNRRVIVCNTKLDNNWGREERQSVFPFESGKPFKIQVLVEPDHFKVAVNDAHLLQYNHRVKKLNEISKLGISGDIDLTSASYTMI
Consider `OC[C@H]1O[C@@H](c2ncnn2Cc2ccccc2)[C@H](O)[C@@H](n2cc(-c3cc(F)c(F)c(F)c3)nn2)[C@H]1O` [Example 28], for which the IC50 is 1470 nM.
Same read-out and setting: the same measure for `OC[C@H]1O[C@@H](c2nncn2-c2cccc(F)c2)[C@H](O)[C@@H](n2cc(-c3cc(F)c(F)c(F)c3)nn2)[C@H]1O` [Example 154]: 80 nM; for `OC[C@H]1O[C@@H](c2ccnn2-c2ccc(Cl)c(Cl)c2)[C@H](O)[C@@H](n2cc(-c3cc(F)c(F)c(F)c3)nn2)[C@H]1O` [Example 285, (2S,3R,4R,5R,6R)-2-(1-(3,4-dichlorophenyl)-1H-pyrazol-5-yl)-6-(hydroxymethyl)-4-(4-(3,4,5-trifluorophenyl)-1H-1,2,3-triazol-1-yl)tetrahydro-2H-pyran-3,5-diol]: 445 nM; for `CSc1cccc(-n2cnnc2[C@@H]2O[C@H](CO)[C@H](O)[C@H](n3cc(-c4cc(F)c(F)c(F)c4)nn3)[C@H]2O)c1` [Example 146]: 50 nM.
Still for that read-out and setting: the same measure for `CN(C)S(=O)(=O)c1ccc(-n2cnnc2[C@@H]2O[C@H](CO)[C@H](O)[C@H](n3cc(-c4cc(F)c(F)c(F)c4)nn3)[C@H]2O)cc1` [Example 115]: 11100 nM.
On to `OC[C@H]1O[C@@H](c2nncn2Cc2ccc(Cl)c(Cl)c2)[C@H](O)[C@@H](n2cc(-c3cc(F)c(F)c(F)c3)nn2)[C@H]1O` [Example 119], for which the IC50 came to 2790 nM.
Still for that read-out and setting: the same measure for `Cc1nc([C@H]2C[C@@H](n3cc(-c4cc(F)c(F)c(F)c4)nn3)[C@@H](O)[C@@H](CO)O2)n(-c2cc(Cl)ccc2C)n1` [Example 184]: 90 nM; for `Cn1cnc2ccc(-n3ncnc3[C@@H]3O[C@H](CO)[C@H](O)[C@H](n4cc(-c5cc(F)c(F)c(F)c5)nn4)[C@H]3O)cc21` [Example 48]: 110 nM.
Same read-out and setting: the same measure for `OC[C@H]1O[C@@H](c2ncnn2-c2ccc(Cl)c(Cl)c2)C[C@@H](n2cc(-c3cc(F)c(F)c(F)c3)nn2)[C@H]1O` [Example 174]: 300 nM.
Still for that read-out and setting: the same measure for `Cc1nc2ccc(-n3ncnc3[C@@H]3O[C@H](CO)[C@H](O)[C@H](n4cc(C(=O)NCc5cccc(F)c5)nn4)[C@H]3O)cc2s1` [Example 200]: 860 nM; for `OC[C@H]1O[C@@H](c2nncn2-c2cccc(-c3ccccc3)c2)[C@H](O)[C@@H](n2cc(-c3cc(F)c(F)c(F)c3)nn2)[C@H]1O` [Example 100]: 470 nM; for `OC[C@H]1O[C@@H](c2nncn2-c2ccccc2Cl)[C@H](O)[C@@H](n2cc(-c3cc(F)c(F)c(F)c3)nn2)[C@H]1O` [Example 89]: 460 nM.
`Cc1ncc(-c2cccc(-n3ncnc3[C@@H]3O[C@H](CO)[C@H](O)[C@H](n4cc(-c5cc(F)c(F)c(F)c5)nn4)[C@H]3O)c2)s1` [Example 52]: the IC50 stood at 300 nM.
Still for that read-out and setting: the same measure for `Cc1nc([C@@H]2O[C@H](CO)[C@H](O)[C@H](n3cc(-c4ccc(Cl)c(Cl)c4)nn3)[C@H]2O)n(-c2cc(Cl)ccc2C(F)(F)F)n1` [Example A3, (2S,3R,4R,5R,6R)-2-(1-(5-Chloro-2-(trifluoromethyl)phenyl)-3-methyl-1H-1,2,4-triazol-5-yl)-4-(4-(3,4-dichlorophenyl)-1H-1,2,3-triazol-1-yl)-6-(hydroxymethyl)tetrahydro-2H-pyran-3,5-diol]: 33 nM.
The same measure, in the same setting: under `OC[C@H]1O[C@@H](c2nncn2-c2ccc(Cl)c(Cl)c2)[C@H](O)[C@@H](n2cc(-c3cc(F)c(F)c(F)c3)nn2)[C@H]1O` [Example 131, (2S,3R,4R,5R,6R)-2-(4-(3,4-dichlorophenyl)-4H-1,2,4-triazol-3-yl)-6-(hydroxymethyl)-4-(4-(3,4,5-trifluorophenyl)-1H-1,2,3-triazol-1-yl)tetrahydro-2H-pyran-3,5-diol] stands 100 nM; under `Cc1nc2ccc(-n3c(C)nnc3[C@H]3C[C@@H](n4cc(-c5cc(F)c(F)c(F)c5)nn4)[C@@H](O)[C@@H](CO)O3)cc2s1` [Example 280, (2R,3R,4R,6R)-2-(hydroxymethyl)-6-(5-methyl-4-(2-methylbenzo[d]thiazol-6-yl)-4H-1,2,4-triazol-3-yl)-4-(4-(3,4,5-trifluorophenyl)-1H-1,2,3-triazol-1-yl)tetrahydro-2H-pyran-3-ol], 70 nM.
The same measure, in the same setting: the same measure for `Cc1nc([C@@H]2O[C@H](CO)[C@H](O)[C@H](n3cc(-c4cccc(F)c4)nn3)[C@H]2O)oc1CO` [Example 300, (2R,3R,4S,5R,6R)-4-(4-(3-fluorophenyl)-1H-1,2,3-triazol-1-yl)-2-(hydroxymethyl)-6-(5-(hydroxymethyl)-4-methyloxazol-2-yl)tetrahydro-2H-pyran-3,5-diol]: 9430 nM; for `Cc1ccc(-n2ncnc2[C@@H]2O[C@H](CO)[C@H](O)[C@H](n3cc(-c4cc(F)c(F)c(F)c4)nn3)[C@H]2O)cc1` [Example 39]: 550 nM.
Take `CO[C@@H]1[C@@H](n2cc(-c3cc(F)c(Cl)c(F)c3)nn2)[C@@H](O)[C@@H](CO)O[C@H]1c1nc(C)nn1-c1ccc2ncsc2c1` [Example A5, (2R,3R,4S,5R,6S)-6-(1-(Benzo[d]thiazol-6-yl)-3-methyl-1H-1,2,4-triazol-5-yl)-4-(4-(4-chloro-3,5-difluorophenyl)-1H-1,2,3-triazol-1-yl)-2-(hydroxymethyl)-5-methoxytetrahydro-2H-pyran-3-ol]: the IC50 was found to be 20 nM.
For the compound `COc1ccc(Cl)cc1-n1cnnc1[C@@H]1O[C@H](CO)[C@H](O)[C@H](n2cc(-c3cc(F)c(F)c(F)c3)nn2)[C@H]1O` [Example 74], the IC50 was 110 nM.
Same read-out and setting: the same measure for `OC[C@H]1O[C@@H](c2ncnn2-c2ccc(Cl)cc2)[C@H](O)[C@@H](n2cc(-c3cc(F)c(F)c(F)c3)nn2)[C@H]1O` [Example 43]: 610 nM; for `Cn1c(=O)sc2cc(-n3cnnc3[C@@H]3O[C@H](CO)[C@H](O)[C@H](n4cc(-c5cc(F)c(F)c(F)c5)nn4)[C@H]3O)ccc21` [Example 136]: 310 nM.
For the compound `Cc1nc2ccc(-n3c(C)nnc3[C@@H]3O[C@H](CO)[C@H](O)[C@H](n4cc(-c5cc(F)c(F)c(F)c5)nn4)[C@H]3O)cc2s1` [Example 273, (2R,3R,4R,5R,6S)-2-(hydroxymethyl)-6-(5-methyl-4-(2-methylbenzo[d]thiazol-6-yl)-4H-1,2,4-triazol-3-yl)-4-(4-(3,4,5-trifluorophenyl)-1H-1,2,3-triazol-1-yl)tetrahydro-2H-pyran-3,5-diol], the IC50 is 40 nM.
The same measure, in the same setting: the same measure for `OC[C@H]1O[C@@H](n2nncc2-c2ccc3[nH]ncc3c2)[C@H](O)[C@@H](n2cc(-c3cc(F)c(F)c(F)c3)nn2)[C@H]1O` [Example 5]: 640 nM; for `COc1ccc(-n2cnnc2[C@@H]2O[C@H](CO)[C@H](O)[C@H](n3cc(-c4cc(F)c(F)c(F)c4)nn3)[C@H]2O)cc1` [Example 98]: 450 nM.
Same read-out and setting: the same measure for `OC[C@H]1O[C@@H](c2nncn2-c2ccccc2OC(F)(F)F)[C@H](O)[C@@H](n2cc(-c3cc(F)c(F)c(F)c3)nn2)[C@H]1O` [Example 102]: 300 nM.
Still for that read-out and setting: under `OC[C@H]1O[C@@H](c2ncnn2-c2cccc(Cl)c2)C[C@@H](n2cc(-c3cc(F)c(F)c(F)c3)nn2)[C@H]1O` [Example 173, (2R,3R,4R,6R)-6-(1-(3-chlorophenyl)-1H-1,2,4-triazol-5-yl)-2-(hydroxymethyl)-4-(4-(3,4,5-trifluorophenyl)-1H-1,2,3-triazol-1-yl)tetrahydro-2H-pyran-3-ol] stands 180 nM.

Staying with this experiment, now noted: read-out: hGal3 IC50.
`Cc1nc2ccc(-n3ncnc3[C@@H]3O[C@H](CO)[C@H](O)[C@H](n4cc(-c5ccc(Cl)c(Cl)c5)nn4)[C@H]3O)cc2s1` [Example 211]: the IC50 stood at 60 nM.
With `Cc1nc2ccc(-n3ncnc3[C@@H]3O[C@H](CO)[C@H](O)[C@H](n4cc(-c5cc(F)cc(F)c5)nn4)[C@H]3O)cc2s1` [Example 215], the IC50 was 140 nM.
The same measure, in the same setting: under `COc1ccc(Cl)cc1-n1nc(C)nc1[C@@H]1O[C@H](CO)[C@H](O)[C@H](n2cc(-c3ccc(Cl)c(F)c3)nn2)[C@H]1O` [Example 251] stands 80 nM; under `Cc1nc2ccc(-n3ncnc3[C@@H]3O[C@H](CO)[C@H](O)[C@H](n4cc(-c5ccc(C(F)(F)F)c(F)c5)nn4)[C@H]3O)cc2s1` [Example 209], 80 nM.
On to `Cc1nc2cc(-c3cn([C@H]4[C@@H](O)[C@@H](CO)O[C@@H](c5ncnn5-c5ccc6nc(C)sc6c5)[C@@H]4O)nn3)cc(F)c2o1` [Example 227], for which the IC50 stood at 250 nM.
Still for that read-out and setting: the same measure for `Cc1nc2ccc(-n3ncnc3[C@@H]3O[C@H](CO)[C@H](O)[C@H](n4cc(-c5cc(F)cc(C(F)(F)F)c5)nn4)[C@H]3O)cc2s1` [Example 228]: 420 nM; for `Cc1nc2ccc(-n3c(C)nnc3[C@@H]3O[C@H](CO)[C@H](O)[C@H](n4cc(-c5ccc(Cl)c(F)c5)nn4)[C@H]3O)cc2s1` [Example 305]: 31 nM; for `Cn1nccc1[C@@H]1O[C@H](CO)[C@H](O)[C@H](n2cc(-c3cc(F)c(F)c(F)c3)nn2)[C@H]1O` [Ex 286]: 10000 nM.

The same experiment, now with this note: read-out: hGal IC50.
Take `Cc1nc([C@@H]2O[C@H](CO)[C@H](O)[C@H](n3cc(-c4cc(F)c5ncccc5c4)nn3)[C@H]2O)n(-c2cc(Cl)ccc2C(F)(F)F)n1` [Example A68]: the IC50 came to 154 nM.
The same measure, in the same setting: under `Cc1nc([C@@H]2O[C@H](CO)[C@H](O)[C@H](n3cc(-c4cc(F)c(Cl)c(Cl)c4)nn3)[C@H]2O)n(-c2cc(Cl)ccc2OC(F)(F)F)n1` [Example A26] stands 36 nM; under `Cc1nc([C@@H]2O[C@H](CO)[C@H](O)[C@H](n3cc(-c4ccc5ncsc5c4)nn3)[C@H]2O)n(-c2cc(Cl)ccc2C(F)(F)F)n1` [Example A63], 291 nM; under `Cc1nc([C@@H]2O[C@H](CO)[C@H](O)[C@H](n3cc(-c4cc(F)c(F)c(F)c4)nn3)[C@H]2O)n(-c2cc(Cl)c(F)cc2Cl)n1` [Example A67], 39 nM.
Same read-out and setting: the same measure for `CO[C@@H]1[C@@H](n2cc(-c3ccc(Br)c(F)c3)nn2)[C@@H](O)[C@@H](CO)O[C@H]1c1nc(C)nn1-c1ccc2ncsc2c1` [Example A75]: 340 nM; for `Cc1nc([C@@H]2O[C@H](CO)[C@H](O)[C@H](n3cc(-c4cc(F)c(Br)c(F)c4)nn3)[C@H]2O)n(-c2cc3sc(C)nc3cc2C(F)(F)F)n1` [Example A33]: 103 nM.

For the origin of these results see patent US11267811B2, “Small molecule inhibitors of galectin-3” (BRISTOL-MYERS SQUIBB COMPANY, priority 2017, dated 2022).
